From patent US8895745B2, “Bicyclic heterocyclic compounds as FGFR inhibitors” (Astex Therapeutics Limited, priority 2006, dated 2014)
Counter-ions that a name gives are not always drawn.

System: LP-1 cell line
Experiment: Cell-based pERK ELISA method, LP-1 cells
Details: Homo sapiens, LP-1, read-out: IC50 less than 1 μM or at least 50% inhibition at a concentration of 1 μM, LP-1 pERK ELISA
Procedure: LP-1 or JIM-1 multiple myeloma cells were seeded in 96 well plates at 1×10^6 cells/ml in 200 ul per well in serum free media. […] Cells were incubated for 16 h at 37° C. prior to the addition of a test compound for 30 minutes. Test compounds were administered at a 0.1% final DMSO concentration. […] ELISA plates and standards were prepared according o the standard DuoSet protocols and the relative amounts of pERK to total ERK in each sample calculated according to the standard curve.
In particular, compounds of the invention were tested against the LP-1 cell line (DSMZ no.: ACC 41) derived from human multiple myeloma.

SMILES | IC50 [µM]
Cn1cc(-c2cnc3c(-c4cccc(NC(=O)NCC(F)(F)F)c4)cnn3c2)ccc1=O [Example 158, 1-{3-[6-(1-Methyl-6-oxo-1,6-dihydro-pyridin-3-yl)-pyrazolo[1,5-a]pyrimidin-3-yl]-phenyl}-3-(2,2,2-trifluoro-ethyl)-urea] | < 1
CC(=O)Nc1cc(C#N)cc(-c2cnc3cc(-c4cccc(CN5CCOCC5)c4)ccn23)c1 [Example 28, N-{3-Cyano-5-[7-(3-morpholin-4-ylmethyl-phenyl)-imidazo[1,2-a]pyridin-3-yl]-phenyl}-acetamide] | < 1
O=C(NCC(F)(F)F)Nc1cccc(-c2cnc3cc(-c4nnco4)ccn23)c1 [Example 330, 1-[3-(7-[1,3,4]Oxadiazol-2-yl-imidazo[1,2-a]pyridin-3-yl)-phenyl]-3-(2,2,2-trifluoro-ethyl)-urea] | < 1
CCNC(=O)Nc1cccc(-c2cnc3cc(-c4ccc(OC)nc4)ccn23)c1 [Example 43, 1-Ethyl-3-{3-[7-(6-methoxy-pyridin-3-yl)-imidazo[1,2-a]pyridin-3-yl]-phenyl}-urea] | < 1
O=C(NCC(F)(F)F)Nc1ccc(F)c(-c2cnc3cc(Cl)ccn23)c1 [Example 252, 1-[3-(7-Chloro-imidazo[1,2-a]pyridin-3-yl)-4-fluoro-phenyl]-3-(2,2,2-trifluoro-ethyl)-urea] | < 1
CC(=O)N1CCC(Oc2cccc(-c3ccn4c(-c5cccc(NC(=O)NCC(F)(F)F)c5)cnc4c3)c2)CC1 [Example 193, 1-(3-{7-[3-(1-Acetyl-piperidin-4-yloxy)-phenyl]-imidazo[1,2-a]pyridin-3-yl}-phenyl)-3-(2,2,2-trifluoro-ethyl)-urea Formate] | < 1
CCNC(=O)Nc1cccc(-c2cnn3cc(-c4ccc(F)cc4)cnc23)c1 [Example 111, 1-Ethyl-3-{3-[6-(4-fluoro-phenyl)-pyrazolo[1,5-a]pyrimidin-3-yl]-phenyl}-urea] | < 1
O=C(NCC(F)(F)F)Nc1cccc(-c2cnn3cc(-c4cn[nH]c4)cnc23)c1 [Example 155, 1-{3-[6-(1H-Pyrazol-4-yl)-pyrazolo[1,5-a]pyrimidin-3-yl]-phenyl}-3-(2,2,2-trifluoro-ethyl)-urea Hydrochloride] | < 1
O=C(NCC(F)(F)F)Nc1cccc(-c2cnc3cc(-c4cccc(C(=O)N5CCNCC5)c4)ccn23)c1 [Example 250, 1-(3-{7-[3-(Piperazine-1-carbonyl)-phenyl]-imidazo[1,2-a]pyridin-3-yl}-phenyl)-3-(2,2,2-trifluoro-ethyl)-urea hydrochloride] | < 1
O=C(NCC(F)(F)F)Nc1cccc(-c2cnc3cc(-c4cccc(C(=O)N5CCCNCC5)c4)ccn23)c1 [Example 283, 1-(3-{7-[3-([1,4] Diazepane-1-carbonyl)-phenyl]-imidazo[1,2-a]pyridin-3-yl}-phenyl)-3-(2,2,2-trifluoro-ethyl)-urea Hydrochloride] | < 1
CC(=O)Nc1cccc(-c2cnc3ccc(-c4ccoc4)cn23)c1 [Example 104, N-[3-(6-Furan-3-yl-imidazo[1,2-a]pyridin-3-yl)-phenyl]-acetamide] | < 1
O=C(NCC(F)(F)F)Nc1cccc(-n2cnc3cc(-c4ccc(F)cc4)cnc32)c1 [Example 179] | < 1
O=C(NCC(F)(F)F)Nc1cccc(-c2cnc3cc(-c4cccc(C(=O)N5CCOCC5)c4)ccn23)c1 [Example 150, 1-(3-{7-[3-(Morpholine-4-carbonyl)-phenyl]-imidazo[1,2-a]pyridin-3-yl}-phenyl)-3-(2,2,2-trifluoro-ethyl)-urea Hydrochloride] | < 1
N#Cc1ccn2c(-c3cccc(NC(=O)NCC(F)(F)F)c3)cnc2c1 [Example 341, 1-[3-(7-Cyano-imidazo[1,2-a]pyridin-3-yl)-phenyl]-3-(2,2,2-trifluoro-ethyl)-urea] | < 1
COc1cccc(-c2ccn3c(-c4cccc(NC(=O)NCC(F)(F)F)c4)cnc3c2)c1 [Example 279, 1-{3-[7-(3-Methoxy-phenyl)-imidazo[1,2-a]pyridin-3-yl]-phenyl}-3-(2,2,2-trifluoro-ethyl)-urea] | < 1
COc1ncc(-c2cnc3c(-c4cccc(NC(=O)NCC(F)(F)F)c4)cnn3c2)cn1 [Example 151, 1-{3-[6-(2-Methoxy-pyrimidin-5-yl)-pyrazolo[1,5-a]pyrimidin-3-yl]-phenyl}-3-(2,2,2-trifluoro-ethyl)-urea] | < 1
CC(=O)Nc1cccc(-c2cnc3cc(-c4ccc(CN5CCOCC5)cc4)ccn23)c1 [Example 10, N-{3-[7-(4-Morpholin-4-ylmethyl-phenyl)-imidazo[1,2-a]pyridin-3-yl]-phenyl}-acetamide hydro-chloride salt] | < 1
O=C(NCC(F)(F)F)Nc1cccc(-c2cnn3cc(-c4ccc(F)cc4)cnc23)c1 [Example 123, 1-{3-[6-(4-Fluoro-phenyl)-pyrazolo[1,5-a]pyrimidin-3-yl]-phenyl}-3-(2,2,2-trifluoro-ethyl)-urea] | < 1

SMILES | IC50 [µM]
O=C(NCC(F)(F)F)Nc1cccc(-c2cnc3cc(-c4cccc(F)c4)ccn23)c1 [Example 143, 1-{3-[7-(3-Fluoro-phenyl)-imidazo[1,2-a]pyridin-3-yl]-phenyl}-3-(2,2,2-trifluoro-ethyl)-urea Hydrochloride] | < 1
CCC(=O)Nc1cccc(-c2cnc3cc(-c4ccc(F)cc4)ccn23)c1 [Example 64, N-{3-[7-(4-Fluoro-phenyl)-imidazo[1,2-a]pyridin-3-yl]-phenyl}-propionamide] | < 1
CN(C)C(=O)/C=C/c1ccn2c(-c3cccc(NC(=O)NCC(F)(F)F)c3)cnc2c1 [Example 345, (E)-N,N-Dimethyl-3-(3-{3-[3-(2,2,2-trifluoro-ethyl)-ureido]-phenyl}-imidazo[1,2-a]pyridin-7-yl)-acrylamide] | < 1
CN1CCN(c2ccc(-c3ccn4c(-c5cccc(NC(=O)NCC(F)(F)F)c5)cnc4c3)cc2)CC1 [Example 245, 1-(3-{7-[4-(4-Methyl-piperazin-1-yl)-phenyl]-imidazo[1,2-a]pyridin-3-yl}-phenyl)-3-(2,2,2-trifluoro-ethyl)-urea Acetic acid] | < 1
CN1CCN(C(=O)c2cccc(-c3ccn4c(-c5cccc(NC(=O)NCC(F)(F)F)c5)cnc4c3)c2)CC1 [Example 220, 1-(3-{7-[3-(4-Methyl-piperazine-1-carbonyl)-phenyl]-imidazo[1,2-a]pyridin-3-yl}-phenyl)-3-(2,2,2-trifluoro-ethyl)-urea] | < 1
CC(=O)Nc1cccc(-c2cnc3cc(-c4cccc(CN5CCOCC5)c4)ccn23)c1 [Example 9, N-{3-[7-(3-Morpholin-4-ylmethyl-phenyl)-imidazo[1,2-a]pyridin-3-yl]-phenyl}-acetamide] | < 1
Cc1ccc(-c2ccn3c(-c4cccc(NC(=O)NCC(F)(F)F)c4)cnc3c2)s1 [Example 270, 1-{3-[7-(5-Methyl-thiophen-2-yl)-imidazo[1,2-a]pyridin-3-yl]-phenyl}-3-(2,2,2-trifluoro-ethyl)-urea formate] | < 1
O=C(NCC(F)(F)F)Nc1cccc(-c2cnc3cc(-c4ccc(F)c(Cl)c4)ccn23)c1 [Example 284, 1-{3-[7-(3-Chloro-4-fluoro-phenyl)-imidazo[1,2-a]pyridin-3-yl]-phenyl}-3-(2,2,2-trifluoro-ethyl)-urea] | < 1
O=C(NCC(F)(F)F)Nc1cccc(-c2cnc3cc(-c4ccc(F)cc4F)ccn23)c1 [Example 269, 1-{3-[7-(2,4-Difluoro-phenyl)-imidazo[1,2-a]pyridin-3-yl]-phenyl}-3-(2,2,2-trifluoro-ethyl)-urea] | < 1
Cc1nn(C)c(C)c1-c1ccn2c(-c3cccc(NC(=O)NCC(F)(F)F)c3)cnc2c1 [Example 234, 1-(2,2,2-Trifluoro-ethyl)-3-{3-[7-(1,3,5-trimethyl-1H-pyrazol-4-yl)-imidazo[1,2-a]pyridin-3-yl]-phenyl}-urea] | < 1
O=C(NCC(F)(F)F)Nc1cccc(-c2cnn3cc(-c4cccc(C(=O)N5CCOCC5)c4)cnc23)c1 [Example 165, 1-(3-{6-[3-(Morpholine-4-carbonyl)-phenyl]-pyrazolo[1,5-a]pyrimidin-3-yl}-phenyl)-3-(2,2,2-trifluoro-ethyl)-urea] | < 1
NS(=O)(=O)c1cccc(-c2ccn3c(-c4cccc(NC(=O)NCC(F)(F)F)c4)cnc3c2)c1 [Example 249, 3-(3-{3-[3-(2,2,2-Trifluoro-ethyl)-ureido]-phenyl}-imidazo[1,2-a]pyridin-7-yl)-benzene-sulfonamide formate] | < 1
O=C(NCC(F)F)Nc1cccc(-c2cnc3cc(-c4ccc(F)cc4)ccn23)c1 [Example 229, 1-(2,2-Difluoro-ethyl)-3-{3-[7-(4-fluoro-phenyl)-imidazo[1,2-a]pyridin-3-yl]-phenyl}-urea Hydrochloride] | < 1
O=C(NCC(F)(F)F)Nc1cccc(-c2cnc3cc(-c4ccc(=O)n(CCCN5CCCCC5)c4)ccn23)c1 [Example 208, 1-(3-{7-[6-Oxo-1-(3-piperidin-1-yl-propyl)-1,6-dihydro-pyridin-3-yl]-imidazo[1,2-a]pyridin-3-yl}-phenyl)-3-(2,2,2-trifluoro-ethyl)-urea Hydrochloride] | < 1
CCNC(=O)Nc1cc(OC)cc(-c2cnc3cc(-c4ccc(F)cc4)ccn23)c1 [Example 216, 1-Ethyl-3-{3-[7-(4-fluoro-phenyl)-imidazo[1,2-a]pyridin-3-yl]-5-methoxy-phenyl}-urea] | < 1
O=C(NCC(F)(F)F)Nc1cccc(-c2cnc3cc(C4CC4)ccn23)c1 [Example 334, 1-[3-(7-Cyclopropyl-imidazo[1,2-a]pyridin-3-yl)-phenyl]-3-(2,2,2-trifluoro-ethyl)-urea Formate] | < 1
CCNC(=O)Nc1cc(-c2cnn3cc(-c4ccc(F)cc4)cnc23)ccn1 [Example 204, 1-Ethyl-3-{4-[6-(4-fluoro-phenyl)-pyrazolo[1,5-a]pyrimidin-3-yl]-pyridin-2-yl}-urea] | < 1

Same assay, conditions: Homo sapiens, LP-1, read-out: LP-1 pERK ELISA (μM)

SMILES | IC50 [µM]
Cc1c(-c2ccn3c(-c4cccc(NC(=O)NCC(F)(F)F)c4)cnc3c2)nnn1C [Example 378, 1-{3-[7-(1,5-Dimethyl-1H-[1,2,3]triazol-4-yl)-imidazo[1,2-a]pyridin-3-yl]-phenyl}-3-(2,2,2-trifluoro-ethyl)-urea formate] | 0.016
